From article PMC12893914 (Nature, 2025)

What was measured:
MOR [1] = target: T1, MOR (Mus musculus, UniProt P42866); format: biochemical; conditions: mouse spinal cord membranes; 100 nM DAMGO pulse loading
MOR [2] = target: T1, MOR; format: biochemical; conditions: mouse spinal cord membranes

T1 sequence (P42866 whole entry): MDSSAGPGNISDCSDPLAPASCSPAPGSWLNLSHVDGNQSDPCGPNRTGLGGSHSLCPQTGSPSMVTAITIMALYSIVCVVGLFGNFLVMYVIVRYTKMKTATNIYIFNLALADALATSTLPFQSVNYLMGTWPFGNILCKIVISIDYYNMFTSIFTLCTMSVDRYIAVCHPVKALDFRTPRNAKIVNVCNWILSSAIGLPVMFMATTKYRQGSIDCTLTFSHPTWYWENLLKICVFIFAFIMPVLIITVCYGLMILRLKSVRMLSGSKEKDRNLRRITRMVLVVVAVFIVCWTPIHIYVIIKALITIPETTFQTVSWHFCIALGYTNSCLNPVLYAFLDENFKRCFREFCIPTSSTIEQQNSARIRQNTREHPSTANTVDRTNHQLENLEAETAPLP

C[C@@H](NC(=O)[C@@H](N)Cc1ccc(O)cc1)C(=O)NCC(=O)N(C)[C@@H](Cc1ccccc1)C(=O)NCCO [DAMGO, [D-Ala2, N-MePhe4, Gly-ol]-enkephalin]
efficacy in ^35S-GTPγS release (MOR [1]): does not reach this plateau
efficacy class in ^35S-GTPγS binding (MOR [2]): full agonists
stimulation of GTPγS binding over baseline (MOR [2]; 10 µM DAMGO): 40%
stimulation of ^35S-GTPγS binding over baseline (MOR [2]; 10 µM DAMGO): 1.4 ± 0.01 fold
